“And” between values parts separate entries of the source, which are not always exact repeats. Equal values may be shown once.
Experiments:
NOD mice = experiment: Blood chemistry parameters in WCDD301-treated NOD mice; assay type: in vivo, mouse
Protocol: Terminal blood was collected into microfuge tubes containing K2-EDTA (supplemented by 45 mM phenylmethylsulphonyl fluoride and 0.77 μM aprotinin) through cardiac puncture. Plasma was separated by centrifugation (2,000g for 10 minutes at 4°C) and kept at –80°C until analysis. Plasma samples with hemolysis were excluded from the study. […] Values of BUN, creatinine, ALB, ALT, and AST were determined by a Roche Cobas C501 Autoanalyzer as performed by the Washington University Diabetes Research Center Translational Diagnostics Core. Reference intervals of blood chemistry parameters for inbred NOD mice were extracted from the Mouse Phenome Database (https://phenome.jax.org/).

[1] = test system: mouse dispersed islet cells; experiment: Immunofluorescence: EphA4 intensity in glucagon+ mouse dispersed islet cells; assay type: cell-based;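 as to EphA4 intensity: ImageJ intensity within ROI drawn around each glucagon+ cell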
Protocol: Coverslips were treated with WCDD301, preclustered Ephrin-A5 Fc, or preclustered Fc in the following sequential order: KRBH (11 mM glucose, 30 minutes), KRBH (1 mM glucose, 60 minutes), KRBH (1 mM glucose, 30 minutes), and KRBH (11 mM glucose, 60 minutes). After treatment, coverslips were washed once in PBS, fixed in 2% paraformaldehyde in PBS (30 minutes), and again washed in PBS. […] Following wash in PBS, coverslips were incubated in a mixture of Alexa Fluor 555 Phalloidin (Cell Signaling Technology, catalog 8953) and secondary antibodies (goat anti-rabbit Alexa Fluor 488, catalog A-21094, 1:1,000, Molecular Probes; and goat anti-mouse Alexa Fluor 633, catalog A21052, 1:1,000, Life Technologies) for 1 hour at RT. Both primary and secondary antibodies were diluted in blocking buffer containing 0.05% Tween 20. Coverslips were washed using PBS and counterstained by using DAPI (1:1,000) for 10 minutes. Following 2 washes in PBS, coverslips were mounted on glass slides using ProLong Glass Antifade Mountant (Invitrogen, catalog P36980). Images were captured using the Zeiss LSM880 microscope with a Plan-Apochromat 63× 1.4 NA objective lens by setting dual-band dichroic/filter for 405, 488, 561, and 633 nm laser excitation. For each slide, 25–30 fields of view were scanned, and in each field of view, 3–5 cells were imaged. […] Values of intensity were compared among groups using 1-way ANOVA, α = 0.05.

[2] = test system: isolated islets of donors with T1D; experiment: Insulin secretion from isolated islets of donors with T1D; assay type: cell-based, human; details: for Secretion of insulin: isolated islets, T1D donors, one value per donor, Figure 2I;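 as to Secretion of insulin: insulin concentration in collected medium by Lumit immunoassay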
Protocol: The Integrated Islet Distribution Program provided us human donor islets with their characteristics (Supplemental Table 6). Islets were centrifuged at 500g for 3 minutes, resuspended in CMRL 1066 medium (Gibco, catalog 1150-037) containing 11 mM glucose, and rested in an incubator overnight.
For the hormone secretion assay, islets or dispersed islet cells were adapted in KRBH buffer containing 11 mM glucose for 1 hour. Then, after 2 washes in HBSS containing 11 mM glucose, islets or cells were treated in the following sequential order in the presence or absence of WCDD301: incubation in KRBH (1 mM glucose, 30 minutes) followed by medium collection, incubation in KRBH (11 mM glucose, 30 minutes) followed by medium collection.

[3] = test system: murine dispersed islet cells; experiment: Glucagon secretion from murine dispersed islet cells; assay type: cell-based, mouse; details: for Relative secretion of glucagon: one value per mouse
Protocol: Pancreata of nondiabetic C57BL/6J mice were digested using collagenase P (Roche Diagnostics, catalog 11213873001), and islets were manually picked up using a stereomicroscope (ZEISS Stemi 305). […] Isolated mouse islets or provided human islets were dispersed as described ([28]). Briefly, 100–120 islets were washed 2 times using modified HBSS, then dispersed in 600 μL Accutase (Innovative Cell Technologies, catalog AT-104) by gently pipetting up and down for 7 minutes at 37°C. […] Following refreshing of KRBH, cells were dispensed in 8 microfuge tubes (2,000 cells/tube) and treated with WCDD301, preclustered Ephrin-A5 Fc, or preclustered Fc in the presence or absence of the competitive inhibitor of EphA4 receptor, rhyncophylline ([60]) (MilliporeSigma, catalog SML2345). In the presence or absence of these effectors, secretion assay was performed sequentially as shown in Supplemental Table 5. […] Preclustering of Ephrin-A5 Fc was done by mixing Ephrin-A5 Fc or Fc alone (BioLegend, catalog 790102) with anti-Fc antibody (Invitrogen, catalog A16086) (1:10 molar ratio) 20 minutes before treatment ([62]). […] Shedding of cleaved EphA4 was measured from the cell culture medium. Experiments were performed by dispersion of 200 islets, and EphA4 levels in media were measured by EphA4 ELISA (ABclonal, catalog RK06572).

Structure (SMILES): CC(=O)OCC(N)(COC(C)=O)COC(C)=O [WCDD301, 2-(acetoxymethyl)-2-aminopropane-1,3-diyl diacetate]
- Blood chemistry markers (BUN, creatinine, ALB, ALT, AST) (NOD mice; WCDD301-treated animals): remained in the normal range
- Creatinine (CREAT) (NOD mice; non-diabetic NOD mice, 19-week-old, treated with WCDD301, mean ± SEM, n=5, reference interval 0.2-0.5): 0.2 ± 0.1 mg/dL
- Albumin (ALB) (NOD mice; non-diabetic NOD mice, 19-week-old, treated with WCDD301, mean ± SEM, n=5, reference interval 1.72-3.54): 3 ± 0.1 g/dL
- Alanine aminotransferase (ALT) (NOD mice; non-diabetic NOD mice, 19-week-old, treated with WCDD301, mean ± SEM, n=5, reference interval 5-394): 20.5±9.5 IU/L
- Blood urea nitrogen (BUN) (NOD mice; non-diabetic NOD mice, 19-week-old, treated with WCDD301, mean ± SEM, n=5, reference interval 10-79): 21 ± 2.3 mg/dL
- Aspartate aminotransferase (AST) (NOD mice; non-diabetic NOD mice, 19-week-old, treated with WCDD301, mean ± SEM, n=5, reference interval 18-586): 99.5±57.5 IU/L
- Effect on EphA4 intensity ([1]; dispersed mouse islet cells): increased EphA4 intensity
- EphA4 intensity ([1]; mouse cells, individual values, Figure 3H): 35.0 and 29.0 and 43.3 and 17.8 and 36.0 and 30.0 and 27.0 and 37.0 and 31.0 and 41.7 and 27.2 and 38.0 and 32.0 and 32.1 and 39.0 and 33.0 and 19.7
- Effect on insulin secretion ([2]; islets from donors with long-standing T1D): no effect on the minimal residual insulin secretion
- Secretion of insulin ([2]; 1 mM glucose): 0.055 and 0.09
- Secretion of insulin ([2]; 11 mM glucose): 0.07 and 0.06
- Effect on arginine-stimulated glucagon secretion ([3]; 1 mM and 11 mM glucose, Arg 25 mM, 301 3 µM, E 4 µg/mL, Supplemental Figure 2): its effect was suppressed
- Effect on glucagon secretion ([3]; 11 mM glucose, Figure 1F): suppressed glucagon secretion
- Secretion of glucagon ([3]; 301 (1.5 µM) + Rhy (2.5 µM), Glucose (1 mM), Figure 1H): 1.25 and 1.09 and 1.1 and 1.05 and 1
- Secretion of glucagon ([3]; 301 (1.5 µM) + Rhy (2.5 µM), Glucose (11 mM), Figure 1H): 0.64 and 0.69 and 0.7 and 0.75 and 0.72
- Relative secretion of glucagon ([3]; 301 (1.5 µM), Glucose (1 mM), Figure 1F): 0.81 and 0.78 and 0.75 and 0.68 and 0.86
- Relative secretion of glucagon ([3]; 301 (1.5 µM), Glucose (11 mM), Figure 1F): 0.91 and 0.85 and 1.05 and 0.78 and 1.01
- Secretion of glucagon ([3]; 301 (3 µM) + Rhy (2.5 µM), Glucose (1 mM), Figure 1H): 0.87 and 0.81 and 0.9 and 0.85 and 0.8
- Secretion of glucagon ([3]; 301 (3 µM) + Rhy (2.5 µM), Glucose (11 mM), Figure 1H): 0.41 and 0.5 and 0.46 and 0.45 and 0.48
- Relative secretion of glucagon ([3]; 301 (3 µM), Glucose (1 mM), Figure 1F): 0.89 and 0.7 and 0.75 and 0.68
- Relative secretion of glucagon ([3]; 301 (3 µM), Glucose (11 mM), Figure 1F): 0.83 and 0.75 and 0.7 and 0.8 and 0.87
- Glucagon secretion in presence of rhyncophylline ([3]; WCDD301 3 μM, Figure 1H): outcompeted the inhibitor

— article PMC10906223 (JCI Insight, 2024)
